# Results as given in ChEMBL document CHEMBL5723582, “Data for DCP probe T-10430” (2024).
# Key:
# Conditions in all cases: Compound concentration 1.0 uM
# [1] = target: Mas-related G-protein coupled receptor member X1 (Homo sapiens) (UniProt Q96LB2); assay: RLU of MRGPRX1 at 1.0 µM in the […] PRESTO-Tango GPCRome screen
# [2] = target: Bombesin receptor subtype-3 (Homo sapiens) (UniProt P32247); assay: RLU of BB3 at 1.0 µM in the […] PRESTO-Tango GPCRome screen
# [3] = target: Probable G-protein coupled receptor 19 (Homo sapiens) (UniProt Q15760); assay: RLU of GPR19 at 1.0 µM in the […] PRESTO-Tango GPCRome screen
# [4] = target: Calcitonin receptor (Homo sapiens) (UniProt P30988); assay: RLU of CALCRb at 1.0 µM in the […] PRESTO-Tango GPCRome screen
# [5] = target: Adhesion G protein-coupled receptor A1 (Homo sapiens) (UniProt Q86SQ6); assay: RLU of GPR123 at 1.0 µM in the […] PRESTO-Tango GPCRome screen
# [6] = target: G-protein coupled receptor 39 (Homo sapiens) (UniProt O43194); assay: RLU of GPR39 at 1.0 µM in the […] PRESTO-Tango GPCRome screen
# [7] = target: Adhesion G-protein coupled receptor F1 (Homo sapiens) (UniProt Q5T601); assay: RLU of GPR110 at 1.0 µM in the […] PRESTO-Tango GPCRome screen
# Sequence of Adhesion G-protein coupled receptor F1 (Homo sapiens) (Q5T601 20-566 limits assumed): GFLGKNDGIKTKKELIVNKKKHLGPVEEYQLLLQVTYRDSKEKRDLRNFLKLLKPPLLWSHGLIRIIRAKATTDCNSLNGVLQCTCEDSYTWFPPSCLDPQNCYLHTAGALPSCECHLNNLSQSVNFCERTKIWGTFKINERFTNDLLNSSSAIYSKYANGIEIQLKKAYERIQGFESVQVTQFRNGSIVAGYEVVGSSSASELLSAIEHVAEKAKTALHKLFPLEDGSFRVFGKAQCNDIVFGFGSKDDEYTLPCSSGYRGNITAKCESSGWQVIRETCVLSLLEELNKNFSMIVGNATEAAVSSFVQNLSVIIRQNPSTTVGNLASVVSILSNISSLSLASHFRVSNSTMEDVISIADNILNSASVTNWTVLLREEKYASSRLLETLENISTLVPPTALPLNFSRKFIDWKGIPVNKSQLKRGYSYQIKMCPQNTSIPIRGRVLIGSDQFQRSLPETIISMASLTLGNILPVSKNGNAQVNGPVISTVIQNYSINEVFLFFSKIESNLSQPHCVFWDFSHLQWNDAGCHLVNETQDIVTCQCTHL
# Sequence of Adhesion G-protein coupled receptor F1 (Homo sapiens) (Q5T601 567-910 limits assumed): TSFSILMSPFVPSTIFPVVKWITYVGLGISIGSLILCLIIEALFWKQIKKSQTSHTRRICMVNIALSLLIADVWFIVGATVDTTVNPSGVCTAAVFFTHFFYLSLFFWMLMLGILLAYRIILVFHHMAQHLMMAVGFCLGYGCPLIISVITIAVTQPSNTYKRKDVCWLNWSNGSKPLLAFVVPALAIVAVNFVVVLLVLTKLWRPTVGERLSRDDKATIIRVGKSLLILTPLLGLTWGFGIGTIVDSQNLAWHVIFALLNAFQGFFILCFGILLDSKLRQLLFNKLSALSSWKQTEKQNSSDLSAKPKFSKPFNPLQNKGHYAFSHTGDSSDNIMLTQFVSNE
# [8] = target: Neuromedin-U receptor 1 (Homo sapiens) (UniProt Q9HB89); assay: RLU of NMUR1 at 1.0 µM in the […] PRESTO-Tango GPCRome screen
# [9] = target: Mu-type opioid receptor (Homo sapiens) (UniProt P35372); assay: RLU of OPRM1 at 1.0 µM in the […] PRESTO-Tango GPCRome screen
# [10] = target: Prostaglandin F2-alpha receptor (Homo sapiens) (UniProt P43088); assay: RLU of PTGFR at 1.0 µM in the […] PRESTO-Tango GPCRome screen
# [11] = target: Parathyroid hormone/parathyroid hormone-related peptide receptor (Homo sapiens) (UniProt Q03431); assay: RLU of PTH1R at 1.0 µM in the […] PRESTO-Tango GPCRome screen
# Sequence of Parathyroid hormone/parathyroid hormone-related peptide receptor (Homo sapiens) (Q03431 whole entry): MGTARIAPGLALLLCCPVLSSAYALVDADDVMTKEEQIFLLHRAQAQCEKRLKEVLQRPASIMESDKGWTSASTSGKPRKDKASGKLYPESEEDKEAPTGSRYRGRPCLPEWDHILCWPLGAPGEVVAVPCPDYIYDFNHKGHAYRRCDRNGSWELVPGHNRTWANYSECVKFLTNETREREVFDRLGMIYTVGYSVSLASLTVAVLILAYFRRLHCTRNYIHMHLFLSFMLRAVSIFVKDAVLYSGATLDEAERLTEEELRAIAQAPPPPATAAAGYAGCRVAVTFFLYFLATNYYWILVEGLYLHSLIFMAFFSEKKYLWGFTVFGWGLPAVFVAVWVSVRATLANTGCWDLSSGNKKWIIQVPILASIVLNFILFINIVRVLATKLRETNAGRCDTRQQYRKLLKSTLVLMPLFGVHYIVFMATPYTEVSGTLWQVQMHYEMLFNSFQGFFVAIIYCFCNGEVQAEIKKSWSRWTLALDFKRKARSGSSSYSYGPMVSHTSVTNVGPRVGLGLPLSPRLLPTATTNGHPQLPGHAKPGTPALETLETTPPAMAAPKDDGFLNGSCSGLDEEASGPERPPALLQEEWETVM
# [12] = target: C-X-C chemokine receptor type 4 (Homo sapiens) (UniProt P61073); assay: RLU of CXCR4 at 1.0 µM in the […] PRESTO-Tango GPCRome screen
# [13] = target: Melanin-concentrating hormone receptor 2 (Homo sapiens) (UniProt Q969V1); assay: RLU of MCHR2 at 1.0 µM in the […] PRESTO-Tango GPCRome screen
# [14] = target: Galanin receptor type 2 (Homo sapiens) (UniProt O43603); assay: RLU of GAL2 at 1.0 µM in the […] PRESTO-Tango GPCRome screen
# [15] = target: Adenosine receptor A2b (Homo sapiens) (UniProt P29275); assay: RLU of ADORA2B at 1.0 µM in the […] PRESTO-Tango GPCRome screen
# [16] = target: Adhesion G protein-coupled receptor F5 (Homo sapiens) (UniProt Q8IZF2); assay: RLU of GPR116 at 1.0 µM in the […] PRESTO-Tango GPCRome screen
# [17] = target: C-C chemokine receptor-like 2 (Homo sapiens) (UniProt O00421); assay: RLU of CCRL2 at 1.0 µM in the […] PRESTO-Tango GPCRome screen
# [18] = target: Oxoeicosanoid receptor 1 (Homo sapiens) (UniProt Q8TDS5); assay: RLU of OXER1 at 1.0 µM in the […] PRESTO-Tango GPCRome screen
# Sequence of Oxoeicosanoid receptor 1 (Homo sapiens) (Q8TDS5 whole entry): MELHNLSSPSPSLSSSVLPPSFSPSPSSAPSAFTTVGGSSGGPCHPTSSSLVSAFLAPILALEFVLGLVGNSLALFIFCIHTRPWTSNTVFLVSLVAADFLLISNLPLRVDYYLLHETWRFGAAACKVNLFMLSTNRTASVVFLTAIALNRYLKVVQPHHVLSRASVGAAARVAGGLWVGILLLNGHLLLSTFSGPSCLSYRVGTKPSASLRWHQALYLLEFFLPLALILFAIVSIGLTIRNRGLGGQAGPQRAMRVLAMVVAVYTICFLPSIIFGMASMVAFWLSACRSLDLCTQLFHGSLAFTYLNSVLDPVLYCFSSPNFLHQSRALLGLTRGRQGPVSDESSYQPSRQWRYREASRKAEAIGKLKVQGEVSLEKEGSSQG
# [19] = target: Neurotensin receptor type 1 (Homo sapiens) (UniProt P30989); assay: RLU of NTSR1 at 1.0 µM in the […] PRESTO-Tango GPCRome screen
# [20] = target: G-protein coupled receptor 161 (Homo sapiens) (UniProt Q8N6U8); assay: RLU of GPR161 at 1.0 µM in the […] PRESTO-Tango GPCRome screen
# Sequence of G-protein coupled receptor 161 (Homo sapiens) (Q8N6U8 whole entry): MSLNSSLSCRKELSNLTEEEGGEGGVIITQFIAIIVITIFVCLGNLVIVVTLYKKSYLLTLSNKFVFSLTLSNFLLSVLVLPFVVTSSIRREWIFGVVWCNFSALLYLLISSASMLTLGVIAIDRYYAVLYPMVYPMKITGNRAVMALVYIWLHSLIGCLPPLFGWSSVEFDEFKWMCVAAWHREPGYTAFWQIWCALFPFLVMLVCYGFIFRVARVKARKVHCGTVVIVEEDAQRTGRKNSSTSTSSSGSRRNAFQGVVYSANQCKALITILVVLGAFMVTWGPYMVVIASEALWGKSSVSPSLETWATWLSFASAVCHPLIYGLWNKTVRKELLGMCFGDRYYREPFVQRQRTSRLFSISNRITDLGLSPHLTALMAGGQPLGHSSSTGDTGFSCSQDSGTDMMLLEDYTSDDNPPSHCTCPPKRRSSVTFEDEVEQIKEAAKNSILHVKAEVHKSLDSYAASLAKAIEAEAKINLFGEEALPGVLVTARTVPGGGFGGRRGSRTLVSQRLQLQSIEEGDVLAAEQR
# [21] = target: G-protein coupled receptor 84 (Homo sapiens) (UniProt Q9NQS5); assay: RLU of GPR84 at 1.0 µM in the […] PRESTO-Tango GPCRome screen
# [22] = target: Neurotensin receptor type 2 (Homo sapiens) (UniProt O95665); assay: RLU of NTSR2 at 1.0 µM in the […] PRESTO-Tango GPCRome screen
# Sequence of Neurotensin receptor type 2 (Homo sapiens) (O95665 whole entry): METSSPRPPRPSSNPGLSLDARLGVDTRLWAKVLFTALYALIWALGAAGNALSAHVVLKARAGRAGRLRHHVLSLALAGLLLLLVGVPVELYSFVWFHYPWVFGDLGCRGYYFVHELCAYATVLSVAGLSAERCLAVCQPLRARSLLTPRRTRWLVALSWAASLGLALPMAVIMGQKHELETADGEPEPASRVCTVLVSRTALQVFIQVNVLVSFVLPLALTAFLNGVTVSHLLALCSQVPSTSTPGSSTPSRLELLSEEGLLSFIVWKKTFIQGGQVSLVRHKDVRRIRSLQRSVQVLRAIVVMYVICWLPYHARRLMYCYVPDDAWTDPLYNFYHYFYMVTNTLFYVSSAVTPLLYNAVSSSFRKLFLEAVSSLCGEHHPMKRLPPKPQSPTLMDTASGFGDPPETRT
# [23] = target: 5-hydroxytryptamine receptor 4 (Homo sapiens) (UniProt Q13639); assay: RLU of HTR4 at 1.0 µM in the […] PRESTO-Tango GPCRome screen
# [24] = target: Vasoactive intestinal polypeptide receptor 2 (Homo sapiens) (UniProt P41587); assay: RLU of VIPR2 at 1.0 µM in the […] PRESTO-Tango GPCRome screen
# Sequence of Vasoactive intestinal polypeptide receptor 2 (Homo sapiens) (P41587 whole entry): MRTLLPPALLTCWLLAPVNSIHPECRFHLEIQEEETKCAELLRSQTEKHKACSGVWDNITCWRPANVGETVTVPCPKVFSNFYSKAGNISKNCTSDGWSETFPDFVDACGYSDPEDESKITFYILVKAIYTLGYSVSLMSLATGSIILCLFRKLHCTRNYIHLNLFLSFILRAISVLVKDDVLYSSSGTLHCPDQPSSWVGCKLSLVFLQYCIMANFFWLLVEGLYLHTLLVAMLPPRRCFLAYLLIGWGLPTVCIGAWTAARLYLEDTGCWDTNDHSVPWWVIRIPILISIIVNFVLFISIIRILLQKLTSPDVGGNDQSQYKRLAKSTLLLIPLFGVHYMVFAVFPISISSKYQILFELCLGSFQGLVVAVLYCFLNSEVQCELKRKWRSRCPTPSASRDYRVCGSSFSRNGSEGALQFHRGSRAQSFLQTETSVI
# [25] = target: Trace amine-associated receptor 5 (Homo sapiens) (UniProt O14804); assay: RLU of TAAR5 at 1.0 µM in the […] PRESTO-Tango GPCRome screen
# [26] = target: Glucagon-like peptide 1 receptor (Homo sapiens) (UniProt P43220); assay: RLU of GLP1R at 1.0 µM in the […] PRESTO-Tango GPCRome screen
# [27] = target: Metabotropic glycine receptor (Homo sapiens) (UniProt Q5T848); assay: RLU of GPR158 at 1.0 µM in the […] PRESTO-Tango GPCRome screen
# [28] = target: Neuropeptides B/W receptor type 2 (Homo sapiens) (UniProt P48146); assay: RLU of NPBW2 at 1.0 µM in the […] PRESTO-Tango GPCRome screen
# Sequence of Neuropeptides B/W receptor type 2 (Homo sapiens) (P48146 whole entry): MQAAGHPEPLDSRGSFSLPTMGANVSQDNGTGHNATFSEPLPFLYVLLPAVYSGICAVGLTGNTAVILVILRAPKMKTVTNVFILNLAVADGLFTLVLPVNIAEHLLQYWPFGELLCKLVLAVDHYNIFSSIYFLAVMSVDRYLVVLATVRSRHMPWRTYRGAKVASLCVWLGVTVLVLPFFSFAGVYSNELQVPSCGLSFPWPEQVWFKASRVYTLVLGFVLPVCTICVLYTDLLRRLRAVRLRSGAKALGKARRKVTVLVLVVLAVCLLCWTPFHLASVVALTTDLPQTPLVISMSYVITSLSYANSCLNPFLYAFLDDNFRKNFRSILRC
# [29] = target: Vasopressin V1b receptor (Homo sapiens) (UniProt P47901); assay: RLU of AVPR1B at 1.0 µM in the […] PRESTO-Tango GPCRome screen
# Sequence of Vasopressin V1b receptor (Homo sapiens) (P47901 whole entry): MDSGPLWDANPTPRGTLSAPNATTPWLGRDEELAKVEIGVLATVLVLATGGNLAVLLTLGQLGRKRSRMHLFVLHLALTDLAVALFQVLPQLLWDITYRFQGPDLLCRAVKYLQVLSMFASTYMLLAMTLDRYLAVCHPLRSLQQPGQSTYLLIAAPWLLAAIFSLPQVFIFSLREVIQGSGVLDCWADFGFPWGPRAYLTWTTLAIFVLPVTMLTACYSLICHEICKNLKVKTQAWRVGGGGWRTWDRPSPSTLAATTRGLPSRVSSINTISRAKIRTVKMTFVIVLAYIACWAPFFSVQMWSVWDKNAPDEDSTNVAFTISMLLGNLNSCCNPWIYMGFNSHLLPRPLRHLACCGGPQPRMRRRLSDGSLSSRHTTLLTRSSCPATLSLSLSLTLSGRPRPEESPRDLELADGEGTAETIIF
# [30] = target: G-protein coupled receptor 22 (Homo sapiens) (UniProt Q99680); assay: RLU of GPR22 at 1.0 µM in the […] PRESTO-Tango GPCRome screen
# [31] = target: Trace amine-associated receptor 1 (Homo sapiens) (UniProt Q96RJ0); assay: RLU of TA1 at 1.0 µM in the […] PRESTO-Tango GPCRome screen
# [32] = target: Probable G-protein coupled receptor 63 (Homo sapiens) (UniProt Q9BZJ6); assay: RLU of GPR63 at 1.0 µM in the […] PRESTO-Tango GPCRome screen
# [33] = target: Gonadotropin-releasing hormone receptor (Homo sapiens) (UniProt P30968); assay: RLU of GNRHR at 1.0 µM in the […] PRESTO-Tango GPCRome screen
# [34] = target: Adrenocorticotropic hormone receptor (Homo sapiens) (UniProt Q01718); assay: RLU of MC2R at 1.0 µM in the […] PRESTO-Tango GPCRome screen
# [35] = target: G-protein coupled receptor 151 (Homo sapiens) (UniProt Q8TDV0); assay: RLU of GPR151 at 1.0 µM in the […] PRESTO-Tango GPCRome screen
# Sequence of Mas-related G-protein coupled receptor member X1 (Homo sapiens) (Q96LB2 whole entry): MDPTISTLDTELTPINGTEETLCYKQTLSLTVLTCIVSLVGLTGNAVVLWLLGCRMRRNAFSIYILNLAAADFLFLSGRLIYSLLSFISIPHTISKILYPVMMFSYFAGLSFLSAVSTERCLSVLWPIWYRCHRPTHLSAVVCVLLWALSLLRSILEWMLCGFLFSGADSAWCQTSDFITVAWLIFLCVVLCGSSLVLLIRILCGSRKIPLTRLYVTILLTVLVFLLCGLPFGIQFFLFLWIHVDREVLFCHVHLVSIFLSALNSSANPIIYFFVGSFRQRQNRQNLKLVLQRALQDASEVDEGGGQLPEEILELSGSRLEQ
# Sequence of Bombesin receptor subtype-3 (Homo sapiens) (P32247 whole entry): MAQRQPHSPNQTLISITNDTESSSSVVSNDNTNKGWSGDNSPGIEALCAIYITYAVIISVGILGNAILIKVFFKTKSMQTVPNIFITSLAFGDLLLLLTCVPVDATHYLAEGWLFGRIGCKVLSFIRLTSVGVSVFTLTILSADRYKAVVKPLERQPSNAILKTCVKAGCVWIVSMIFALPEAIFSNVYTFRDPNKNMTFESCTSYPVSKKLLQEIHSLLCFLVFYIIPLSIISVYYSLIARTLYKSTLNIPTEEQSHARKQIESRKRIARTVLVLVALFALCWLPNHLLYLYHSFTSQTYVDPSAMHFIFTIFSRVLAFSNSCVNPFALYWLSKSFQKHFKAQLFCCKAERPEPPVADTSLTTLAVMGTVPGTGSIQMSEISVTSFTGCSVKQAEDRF
smiles,measurement,setting,value
CCCCC(=O)N1CC2(C1)CN(c1ccccc1-c1nnn[nH]1)C2,RLU,[1],319
same,RLU,[2],-2040
same,RLU,[3],1530
same,RLU,[4],-5810
same,RLU,[5],2100
same,RLU,[6],8020
same,RLU,[7],9360
same,RLU,[8],1950
same,RLU,[9],3970
same,RLU,[10],-81.2
same,RLU,[11],13.4
same,RLU,[12],-831
same,RLU,[13],1.74
same,RLU,[14],1140
same,RLU,[15],6490
same,RLU,[16],-663
same,RLU,[17],-1900
same,RLU,[18],-153
same,RLU,[19],-1300
same,RLU,[20],-2640
same,RLU,[21],-3990
same,RLU,[22],634
same,RLU,[23],-2330
same,RLU,[24],-824
same,RLU,[25],821
same,RLU,[26],3480
same,RLU,[27],1540
same,RLU,[28],-872
same,RLU,[29],-688
same,RLU,[30],-1210
same,RLU,[31],127
same,RLU,[32],-87.9
same,RLU,[33],-3090
same,RLU,[34],1070
same,RLU,[35],12900
